Data: PubChem BioAssay (NCI)
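Where inhibition never reached the appropriate level, the endpoint shown equals the highest concentration tested. Otherwise, values were interpolated linearly from a five-concentration, 48-hour dose response in 96-well plates. TGI is the concentration that stops growth completely.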

Tests used:
Assay in all cases: growth of human tumour cells (NCI), 48 h
XF 498 CNS = test system: XF 498 CNS
HOP-62 NSCLC = test system: HOP-62 NSCLC
NCI/ADR-RES ovarian = test system: NCI/ADR-RES ovarian
HOP-18 NSCLC = test system: HOP-18 NSCLC
NCI-H23 lung = test system: NCI-H23 lung
UACC-62 melanoma = test system: UACC-62 melanoma
SK-MEL-28 melanoma = test system: SK-MEL-28 melanoma
OVCAR-8 ovarian = test system: OVCAR-8 ovarian
SK-OV-3 ovarian = test system: SK-OV-3 ovarian
SF-539 CNS = test system: SF-539 CNS
CCRF-CEM leukemia = test system: CCRF-CEM leukemia
SW-620 colon = test system: SW-620 colon
NCI-H226 lung = test system: NCI-H226 lung
NCI-H522 lung = test system: NCI-H522 lung
U251 CNS = test system: U251 CNS
MALME-3M melanoma = test system: MALME-3M melanoma
OVCAR-5 ovarian = test system: OVCAR-5 ovarian
PC-3 prostate = test system: PC-3 prostate
T-47D breast = test system: T-47D breast
M14 melanoma = test system: M14 melanoma

Compound | TGI (XF 498 CNS) [µM] | TGI (HOP-62 NSCLC) [µM] | TGI (NCI/ADR-RES ovarian) [µM] | TGI (HOP-18 NSCLC) [µM] | TGI (NCI-H23 lung) [µM] | TGI (UACC-62 melanoma) [µM] | TGI (SK-MEL-28 melanoma) [µM] | TGI (OVCAR-8 ovarian) [µM] | TGI (SK-OV-3 ovarian) [µM] | TGI (SF-539 CNS) [µM] | TGI (CCRF-CEM leukemia) [µM] | TGI (SW-620 colon) [µM] | TGI (NCI-H226 lung) [µM] | TGI (NCI-H522 lung) [µM] | TGI (U251 CNS) [µM] | TGI (MALME-3M melanoma) [µM] | TGI (OVCAR-5 ovarian) [µM] | TGI (PC-3 prostate) [µM] | TGI (T-47D breast) [µM] | TGI (M14 melanoma) [µM]
CCC1=CC2CN3CCc4c([nH]c5ccccc45)C(C(=O)OC)(C2)C13 (stereo not drawn) | 76.3 | 86.1 | 110 | > 30 | 100 | 64 | 98.4 | 14.7 | 134 | 92.8 | 252 | 82.7 | 23.4 | 102 | 117 | 92.8 | 24.3 |  |  | 
Cc1cc(C)nc(NS(=O)(=O)c2ccc(Nc3c4ccccc4nc4c(C(=O)NCCCN(CCO)CCO)cccc34)cc2)n1 |  | 73.5 | > 100 |  | > 100 | 60.4 | 31.2 | > 100 | > 100 |  | 69.7 | 33.6 |  | 28.2 | > 100 | 33.6 | > 100 | > 100 | > 100 | 99.2
CN1C2CC(=O)CC1[C@H](O)[C@@H]2O |  | > 100 | > 100 |  | > 100 |  | > 100 | > 100 |  |  | > 100 | > 100 | > 100 |  | > 100 | > 100 |  | > 100 | > 100 | > 100
CC1(C23CC4CC(CC(C4)C2)C3)n2c(=O)n(-c3ccccc3)c(=O)n2C1(C)C12CC3CC(CC(C3)C1)C2 (stereo not drawn) |  | > 100 | > 100 |  | > 100 | > 100 | > 100 | > 100 | > 100 | > 100 | > 100 | > 100 | > 100 |  | > 100 |  | > 100 | > 100 | > 100 | > 100
Cc1[nH]c(=O)nc(N/N=C/c2ccc(Cl)cc2)c1C(=O)NC(C)(CO)CO |  | > 100 | > 100 |  | > 100 | > 100 | > 100 | > 100 | > 100 |  | > 100 | > 100 | > 100 |  | > 100 | > 100 | > 100 | > 100 | > 100 | > 100
